One experiment concerns the target T1, human CB2 receptor (Homo sapiens, UniProt P34972).
T1 construct: expressed in transfected cells; host or cells: human embryonic kidney (HEK) cells, Semliki Forest Virus system, membrane preparations
Nature of the experiment: CB2 receptor affinity, [3H]-CP-55,940 displacement, HEK cell membranes. In kind it is binding. As to conditions: 10 μM compound, radioligand [3H]-CP-55,940. As for the experimental part: The affinity of the compounds of the invention for cannabinoid CB2 receptors was determined using membrane preparations of human embryonic kidney (HEK) cells in which the human CB2 receptor is transiently transfected using a Semliki Forest Virus system in conjunction with [^3H]-CP-55,940 as radioligand. After incubation of freshly prepared cell membrane preparation with the [^3H]-ligand, with or without addition of compounds of the invention, separation of bound and free ligand was performed by filtration over glass fiber filters. Radioactivity on the filter was measured by scintillation counting.
(§1) The ability of the compounds to displace the radioligand [^3H]-CP-55,940 was measured at a concentration of 10 μM and values provided as [% inhibition @ 10 μM] both for the CB 1 and CB2 receptor assay, The lower % inhibition is, the lower the likelihood of side effects based on CB1 or CB2 receptor inhibition is.

Another experiment addresses T2, human CB1 receptor (Homo sapiens, UniProt P21554).
T2 construct: expressed in transfected cells; host or cells: human embryonic kidney (HEK) cells, Semliki Forest Virus system, membrane preparations
In words: CB1 receptor affinity, [3H]-CP-55,940 displacement, HEK cell membranes. The settings on record: 10 μM compound, radioligand [3H]-CP-55,940; read-out: CB1 receptor affinity [% inhibition @ 10 μM]. In kind it is binding. As for the experimental part:
The affinity of the compounds of the invention for cannabinoid receptors was determined using membrane preparations of human embryonic kidney (HEK) cells in which the human CB1 receptor is transiently transfected using a Semliki Forest Virus system in conjunction with [3H]-CP-55,940 as radioligand. After incubation of freshly prepared cell membrane preparation with the [^3H]-ligand, with or without addition of compounds of the invention, separation of bound and free ligand was performed by filtration over glass fiber filters. Radioactivity on the filter was measured by scintillation counting.
as §1

T1 sequence (P34972 whole entry): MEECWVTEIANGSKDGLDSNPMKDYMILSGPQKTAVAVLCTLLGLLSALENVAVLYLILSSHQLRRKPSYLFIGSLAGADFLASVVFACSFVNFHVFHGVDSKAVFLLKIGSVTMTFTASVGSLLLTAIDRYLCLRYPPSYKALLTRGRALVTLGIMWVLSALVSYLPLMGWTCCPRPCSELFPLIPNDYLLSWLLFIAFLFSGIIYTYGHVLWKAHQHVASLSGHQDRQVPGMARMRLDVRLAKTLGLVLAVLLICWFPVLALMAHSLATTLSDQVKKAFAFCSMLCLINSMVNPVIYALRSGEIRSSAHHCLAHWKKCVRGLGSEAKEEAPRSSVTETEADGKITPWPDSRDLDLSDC
T2 sequence (P21554 whole entry): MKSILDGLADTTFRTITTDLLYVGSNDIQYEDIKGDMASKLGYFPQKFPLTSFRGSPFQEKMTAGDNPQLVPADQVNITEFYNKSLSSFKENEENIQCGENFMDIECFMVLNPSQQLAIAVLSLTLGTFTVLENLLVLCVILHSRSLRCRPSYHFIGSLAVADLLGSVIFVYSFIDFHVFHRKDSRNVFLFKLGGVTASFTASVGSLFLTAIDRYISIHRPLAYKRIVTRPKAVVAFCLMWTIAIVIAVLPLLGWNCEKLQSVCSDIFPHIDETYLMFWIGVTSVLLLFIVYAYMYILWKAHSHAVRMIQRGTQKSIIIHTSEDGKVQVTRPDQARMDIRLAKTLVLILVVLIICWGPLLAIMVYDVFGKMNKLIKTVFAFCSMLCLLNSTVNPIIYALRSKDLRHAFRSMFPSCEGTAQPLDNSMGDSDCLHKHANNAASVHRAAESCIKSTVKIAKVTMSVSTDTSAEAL

As usually defined, the inhibition is the relative decrease from the control value, in per cent. Take `O=C(NCc1nc(C(F)(F)F)no1)c1cnc(OC[C@H]2CCOC2)c(-c2ccc(Cl)cc2)c1` (stereo in doubt) [Example 104]: the figures for the inhibition at 10 µM at human CB2 receptor and on human CB1 receptor were 9% and 39%, respectively.
On to `O=C(NCc1nc(C(F)(F)F)no1)c1cnc(OC[C@@H]2CCOC2)c(-c2ccc(Cl)cc2)c1` (stereo in doubt) [Example 105, 5-(4-Chloro-phenyl)-6-[(RS)-1-(tetrahydro-furan-3-yl)methoxy]-N-(3-trifluoromethyl-[1,2,4]oxadiazol-5-ylmethyl)-nicotinamide], for which the inhibition at 10 µM at human CB2 receptor turned out to be 17%; on human CB1 receptor, 47%.
The matching figures for `CCc1nc(CNC(=O)c2cnc(OCC3CC3)c(-c3ccc(Cl)cc3)c2)cs1` [Example 10, 5-(4-chloro-phenyl)-6-cyclopropylmethoxy-N-(2-ethyl-thiazol-4-ylmethyl)-nicotinamide]: 28% and 28%.
With `O=C(NCc1noc(C2CC2)n1)c1ncc(OCC2CC2)c(-c2ccc(Cl)cc2)n1` [Example 13, 4-(4-chloro-phenyl)-5-cyclopropylmethoxy-pyrimidine-2-carboxylic acid (5-cyclopropyl-[1,2,4]oxadiazol-3-ylmethyl)-amide], the values for the inhibition at 10 µM on human CB2 receptor and on human CB1 receptor were 46% and 35%, respectively.
As for `O=C(NCc1nc(C(F)(F)F)no1)c1ncc(OCC(F)(F)F)c(-c2ccc(Cl)cc2)n1` [Example 16, 4-(4-chloro-phenyl)-5-(2,2,2-trifluoro-ethoxy)-pyrimidine-2-carboxylic acid (3-trifluoromethyl-[1,2,4]oxadiazol-5-ylmethyl)-amide], the inhibition at 10 µM came to 15% on human CB2 receptor and 38% on human CB1 receptor.
Consider `O=C(NCc1nc(C2CC2)no1)c1ncc(OCC2CC2)c(-c2ccc(Cl)cc2)n1` [Example 17, 4-(4-chloro-phenyl)-5-cyclopropylmethoxy-pyrimidine-2-carboxylic acid (3-cyclopropyl-[1,2,4]oxadiazol-5-ylmethyl)-amide], for which the inhibition at 10 µM on human CB2 receptor stood at 45%; on human CB1 receptor, 48%.
The matching figures for `Cc1cc(CNC(=O)c2cc(-c3ccc(Cl)cc3)c(OCC(F)(F)F)cn2)no1` [Example 19, 4-(4-chlorophenyl)-N-((5-methylisoxazol-3-yl)methyl)-5-(2,2,2-trifluoro-ethoxy)picolinamide]: 43% and 30%.
The matching figures for `O=C(NCc1nc(C(F)(F)F)no1)c1cc(-c2ccc(Cl)cc2)c(OCC2CC2)nn1` [Example 20, 5-(4-chloro-phenyl)-6-cyclopropylmethoxy-pyridazine-3-carboxylic acid (3-trifluoromethyl-[1,2,4]oxadiazol-5-ylmethyl)-amide]: 34% and 33%.
The matching figures for `O=C(NCc1nc(C(F)(F)F)no1)c1ncc(OCC2CC2)c(-c2ccc(Cl)cc2)n1` [Example 21, 4-(4-chloro-phenyl)-5-cyclopropylmethoxy-pyrimidine-2-carboxylic acid (3-trifluoromethyl-[1,2,4]oxadiazol-5-ylmethyl)-amide]: 35% and 44%.
On to `Cn1cc(Cl)c(CNC(=O)c2cnc(OCC(F)(F)F)c(-c3ccc(Cl)cc3)c2)n1` [Example 26, N-(4-Chloro-1-methyl-1H-pyrazol-3-ylmethyl)-5-(4-chloro-phenyl)-6-(2,2,2-trifluoro-ethoxy)-nicotinamide], for which the inhibition at 10 µM on human CB2 receptor amounted to 22%; on human CB1 receptor it was 40%.
Turning to `O=C(NCc1cc(C2CC2)on1)c1cnc(OCC2CC2)c(-c2ccc(Cl)cc2)c1` [Example 30, 5-(4-chloro-phenyl)-N-(5-cyclopropyl-isoxazol-3-ylmethyl)-6-cyclopropyl-methoxy-nicotinamide], the values for the inhibition at 10 µM on human CB2 receptor and at human CB1 receptor were 38% and 48%, respectively.
As for `CC(C)c1cc(CNC(=O)c2cnc(OCC3CC3)c(-c3ccc(Cl)cc3)c2)no1` [Example 32, 5-(4-chlorophenyl)-6-(cyclopropylmethoxy)-N-((5-isopropylisoxazol-3-yl)methyl)nicotinamide], the values for the inhibition at 10 µM on human CB2 receptor and on human CB1 receptor were 26% and 47%, respectively.
As for `O=C(NCc1cc(C2CC2)no1)c1cc(-c2ccc(Cl)cc2)c(OCC(F)(F)F)cn1` [Example 33, 4-(4-chlorophenyl)-N-((3-cyclopropylisoxazol-5-yl)methyl)-5-(2,2,2-trifluoroethoxy)picolinamide], the inhibition at 10 µM at human CB2 receptor was 26%; at human CB1 receptor, 33%.
The matching figures for `C[C@H](Oc1cnc(C(=O)NCc2nc(C(F)(F)F)no2)nc1-c1ccc(Cl)cc1)C(F)(F)F` [Example 35, (S)-4-(4-chlorophenyl)-N-((3-(trifluoromethyl)-1,2,4-oxadiazol-5-yl)methyl)-5-(1,1,1-trifluoropropan-2-yloxy)pyrimidine-2-carboxamide]: 22% and 50%.
The matching figures for `C[C@H](Oc1ncc(C(=O)NCc2nc(C(F)(F)F)no2)nc1-c1ccc(Cl)cc1)C(F)(F)F` [Example 36, (S)-6-(4-chlorophenyl)-N-((3-(trifluoromethyl)-1,2,4-oxadiazol-5-yl)methyl)-5-(1,1,1-trifluoropropan-2-yloxy)pyrazine-2-carboxamide]: 14% and 36%.
Regarding `COc1cc(CNC(=O)c2cc(-c3ccc(Cl)cc3)c(O[C@@H](C)C(F)(F)F)cn2)on1` [Example 37, (S)-4-(4-chlorophenyl)-N-((3-methoxyisoxazol-5-yl)methyl)-5-(1,1,1-trifluoropropan-2-yloxy)picolinamide], the inhibition at 10 µM at human CB2 receptor was 20%; at human CB1 receptor, 40%.
The matching figures for `CC(C)c1nc(CNC(=O)c2cc(-c3ccc(Cl)cc3)c(OCC(F)(F)F)cn2)no1` [Example 39, 4-(4-chlorophenyl)-N-((5-isopropyl-1,2,4-oxadiazol-3-yl)methyl)-5-(2,2,2-trifluoroethoxy)picolinamide]: 21% and 26%.
`CC(C)c1noc(CNC(=O)c2cc(-c3ccc(Cl)cc3)c(OCC(F)(F)F)cn2)n1` [Example 40, 4-(4-chlorophenyl)-N-((3-isopropyl-1,2,4-oxadiazol-5-yl)methyl)-5-(2,2,2-trifluoroethoxy)picolinamide]: the inhibition at 10 µM at human CB2 receptor is 19%; on human CB1 receptor, 29%.
The matching figures for `O=C(NCc1noc(C2CC2)n1)c1cc(-c2ccc(Cl)cc2)c(OCC(F)(F)F)nn1` [Example 41, 5-(4-chloro-phenyl)-6-(2,2,2-trifluoro-ethoxy)-pyridazine-3-carboxylic acid (5-cyclopropyl-[1,2,4]oxadiazol-3-ylmethyl)-amide]: 19% and 23%.
Take `CC(C)(C)c1nc(CNC(=O)c2cc(-c3ccc(Cl)cc3)c(OCC(F)(F)F)nn2)cs1` [Example 65, 5-(4-chloro-phenyl)-6-(2,2,2-trifluoro-ethoxy)-pyridazine-3-carboxylic acid (2-tert-butyl-thiazol-4-ylmethyl)-amide]: the inhibition at 10 µM at human CB1 receptor came out at 18%.

The values above are taken from patent US9090599B2, “Heteroarylmethyl amides” (Hoffman-La Roche Inc., priority 2010, dated 2015).
